According to PMC9143880, “Improving Antimicrobial Activity and Physico-Chemical Properties by Isosteric Replacement of 2-Aminothiazole with 2-Aminooxazole” (Pharmaceuticals, 2022):
pIC50: −log10 of the molar value. In brackets after ≈: the same amount, converted by molar mass. Where two headings read alike, the source gives them in different places.

Key:
[1] = test system: Trichophyton interdigitale CCM 8377 (ATCC 9533); experiment: Antifungal microdilution broth (EUCAST); conditions: for MIC: Trichophyton interdigitale, 72 h, read-out: MIC TI
[2] = test system: M. avium DSM 44156 (ATCC 25291); experiment: Antimycobacterial MIC, microdilution broth / resazurin; assay type: cell-based, Mycobacterium avium; conditions: Mycobacterium avium; resazurin after 96 h; read-out: MIC M. avium
[3] = test system: Candida albicans CCM 8320 (ATCC 24433); experiment: Antifungal microdilution broth (EUCAST); conditions: for MIC: Candida albicans, 24 h, read-out: MIC CA
[4] = test system: M. aurum DSM 43999 (ATCC 23366); experiment: Antimycobacterial MIC, microdilution broth / resazurin; assay type: cell-based; conditions: Mycolicibacterium aurum; resazurin after 72 h; read-out: MIC M. aurum
[5] = test system: Staphylococcus epidermidis CCM 4418 (ATCC 12228); experiment: Antibacterial microdilution broth (EUCAST); assay type: cell-based; conditions: 24h incubation; for MIC: Staphylococcus epidermidis, read-out: MIC SE
[6] = test system: M. smegmatis DSM 43465 (ATCC 607); experiment: Antimycobacterial MIC, microdilution broth / resazurin; assay type: cell-based; conditions: Mycolicibacterium smegmatis; resazurin after 48 h; read-out: MIC M. smegmatis
HepG2 cells = experiment: HepG2 cytotoxicity screening (CellTiter 96); assay type: cell-based, human; conditions: Homo sapiens, HepG2, 24 h, 24 h incubation, CellTiter 96; * above highest tested concentration; ** limited by insolubility in medium
[7] = test system: Acinetobacter baumannii DSM 30007 (ATCC 19606); experiment: Antibacterial microdilution broth (EUCAST); assay type: cell-based; conditions: 24h incubation; for MIC: Acinetobacter baumannii, read-out: MIC AB
[8] = test system: Pseudomonas aeruginosa CCM 3955 (ATCC 27853); experiment: Antibacterial microdilution broth (EUCAST); assay type: cell-based; conditions: 72h incubation; for MIC: Pseudomonas aeruginosa, read-out: MIC PA
[9] = test system: Candida tropicalis CCM 8264 (ATCC 750); experiment: Antifungal microdilution broth (EUCAST); conditions: for MIC: Candida tropicalis, 24 h, read-out: MIC CT
[10] = test system: Candida parapsilosis CCM 8260 (ATCC 22019); experiment: Antifungal microdilution broth (EUCAST); conditions: for MIC: Lodderomyces parapsilosis, 24 h, read-out: MIC CP
[11] = test system: Staphylococcus aureus subsp. aureus (MRSA) CCM 4750 (ATCC 43300); experiment: Antibacterial microdilution broth (EUCAST); assay type: cell-based; conditions: 24h incubation; for MIC: Staphylococcus aureus, read-out: MIC MRSA
[12] = test system: Aspergillus flavus CCM 8363; experiment: Antifungal microdilution broth (EUCAST); conditions: for MIC: Aspergillus flavus, CCM8363, 24 h, read-out: MIC AFla
[13] = test system: Lichtheimia corymbifera CCM 8077; experiment: Antifungal microdilution broth (EUCAST); conditions: for MIC: Lichtheimia corymbifera, CCM8077, 24 h, read-out: MIC LC
[14] = test system: Enterococcus faecalis CCM 4224 (ATCC 29212); experiment: Antibacterial microdilution broth (EUCAST); assay type: cell-based; conditions: 24h incubation; for MIC: Enterococcus faecalis, read-out: MIC EF
[15] = test system: Mycobacterium tuberculosis H37Ra ITM-M006710 (ATCC 9431); experiment: Antimycobacterial MIC, microdilution broth / Alamar Blue (resazurin); assay type: cell-based; conditions: Mycobacterium tuberculosis, 120 h, Middlebrook 7H9, resazurin after 120 h; read-out: Mtb H37Ra MIC
[16] = test system: Aspergillus fumigatus ATCC 204305; experiment: Antifungal microdilution broth (EUCAST); conditions: for MIC: Aspergillus fumigatus, ATCC204305, 24 h, read-out: MIC AF
[17] = test system: Candida krusei CCM 8271 (ATCC 6258); experiment: Antifungal microdilution broth (EUCAST); conditions: for MIC: Pichia kudriavzevii, 24 h, read-out: MIC CK
[18] = test system: M. kansasii DSM 44162 (ATCC 12478); experiment: Antimycobacterial MIC, microdilution broth / resazurin; assay type: cell-based; conditions: Mycobacterium kansasii, read-out: MIC M. kansasii
[19] = test system: Escherichia coli CCM 3954 (ATCC 25922); experiment: Antibacterial microdilution broth (EUCAST); assay type: cell-based; conditions: 24h incubation; for MIC: Escherichia coli, read-out: MIC EC
[20] = test system: Staphylococcus aureus subsp. aureus CCM 4223 (ATCC 29213); experiment: Antibacterial microdilution broth (EUCAST); assay type: cell-based; conditions: 24h incubation; for MIC: Staphylococcus aureus, read-out: MIC SA
[21] = RP-UHPLC lipophilicity parameter log k’w; assay type: physicochemical; conditions: for log k’w: RP-UHPLC, acetonitrile/water, log k extrapolated to 0% acetonitrile; for logkw: experimental lipophilicity parameter
Excerpt: Lipophilicity and water solubility of the drug candidates are important parameters as they are often directly related to their ADME properties in the organism. Lipophilicity is usually expressed as the logarithm of the partition coefficient in n-octanol/water (log P). Due to its laborious determination, especially in the HTS screening, other experimental methods such as RP-HPLC log k’w or purely computational approaches such as Clog P were proposed and have been established as reasonable estimators of true lipophilicity. To investigate the changes in lipophilicity upon introduction of oxazole in the title compounds, we determined the log k’w of all derivatives and compared respective values among the pairs.
The log k of the synthesized compounds was measured using the same instrument (single measurement per concentration), software, and column as was used in the purity evaluation. Working solutions were diluted as described above for purity determination. The log k parameter was calculated after the UHPLC measurements using isocratic mode with mobile phase acetonitrile (B)/water (A) in a set of concentrations of 40, 45, 50% and 20, 30, 40% B for subtype I and subtype II, respectively.

O=C(Nc1nc(-c2ccccc2)co1)c1cnc(Cl)cn1 [Compound 18b]
MIC TI ([1]; 72h incubation): insoluble | MIC [2]: 62.5 µg/mL (≈ 208 µM) | MIC CA ([3]; 24h incubation): insoluble | MIC [4]: 125 µg/mL (≈ 416 µM) | MIC SE [5]: insoluble | MIC [6]: ≥ 500 µg/mL | pIC50 (HepG2 cells): < 4.00 | MIC AB [7]: insoluble | MIC PA [8]: insoluble | MIC CT ([9]; 24h incubation): insoluble | MIC CP ([10]; 24h incubation): insoluble | MIC MRSA [11]: insoluble | MIC AFla ([12]; 24h incubation): insoluble | MIC LC ([13]; 24h incubation): insoluble | MIC EF [14]: insoluble | MIC [15]: 15.6 µg/mL (≈ 52 µM) | melting point: 203 to 207 °C | MIC AF ([16]; 24h incubation): insoluble | MIC CK ([17]; 24h incubation): insoluble | MIC ([18]; 96 h): 15.6 µg/mL (≈ 52 µM) | MIC EC [19]: insoluble | MIC SA [20]: insoluble | log k’w [21]: 2.073 | logkw [21]: 2.073

Cc1cncc(C(=O)Nc2nc(-c3ccccc3)co2)c1 [Compound 14b]
MIC [1]: > 500 µM | MIC [2]: ≥ 250 µg/mL | MIC [3]: > 500 µM | MIC [4]: ≥ 250 µg/mL | MIC [5]: 250 µM (≈ 69.8 µg/mL) | MIC [6]: ≥ 250 µg/mL | pIC50 (HepG2 cells): < 4.00 | MIC [7]: > 250 µM | MIC [8]: > 250 µM | MIC [9]: > 500 µM | MIC [10]: > 500 µM | MIC [11]: 250 µM (≈ 69.8 µg/mL) | MIC [12]: > 500 µM | MIC [13]: > 500 µM | MIC [14]: > 250 µM | MIC [15]: ≥ 250 µg/mL | melting point: 258.6 °C | MIC [16]: > 500 µM | MIC [17]: > 500 µM | MIC ([18]; resazurin after 96 h): ≥ 250 µg/mL | MIC [19]: > 250 µM | MIC [20]: 250 µM (≈ 69.8 µg/mL) | log k’w [21]: 1.478 | logkw [21]: 1.478

O=C(Nc1nc(-c2ccccc2)co1)c1cnccn1 [Compound 17b]
MIC [1]: > 500 µM | MIC [2]: ≥ 500 µg/mL | MIC [3]: > 500 µM | MIC [4]: 125 µg/mL (≈ 469 µM) | MIC [5]: > 500 µM | MIC [6]: ≥ 500 µg/mL | pIC50 (HepG2 cells): < 3.00 | MIC [7]: > 500 µM | MIC [8]: > 500 µM | MIC [9]: > 500 µM | MIC [10]: > 500 µM | MIC [11]: > 500 µM | MIC [12]: > 500 µM | MIC [13]: > 500 µM | MIC [14]: > 500 µM | MIC [15]: 15.6 µg/mL (≈ 58.7 µM) | melting point: 140 to 142 °C | MIC [16]: > 500 µM | MIC [17]: > 500 µM | MIC ([18]; 96 h): 15.6 µg/mL (≈ 58.7 µM) | MIC [19]: > 500 µM | MIC [20]: > 500 µM | log k’w [21]: 1.306 | logkw [21]: 1.306

O=C(Nc1nccs1)c1cnc(Cl)cn1 [Compound 9a]
MIC [1]: > 500 µM | MIC [2]: 15.6 µg/mL (≈ 64.9 µM) | MIC [3]: > 500 µM | MIC [4]: ≥ 500 µg/mL | MIC [5]: > 500 µM | MIC [6]: ≥ 500 µg/mL | MIC [7]: > 500 µM | MIC [8]: > 500 µM | MIC [9]: > 500 µM | MIC [10]: > 500 µM | MIC [11]: > 500 µM | MIC [12]: 500 µM (≈ 120 µg/mL) | MIC [13]: > 500 µM | MIC [14]: > 500 µM | MIC [15]: 31.2 µg/mL (≈ 130 µM) | melting point: 197 to 200 °C | MIC [16]: 500 µM (≈ 120 µg/mL) | MIC [17]: > 500 µM | MIC ([18]; resazurin after 96 h): < 3.91 µg/mL | MIC [19]: > 500 µM | MIC [20]: > 500 µM | log k’w [21]: 1.941 | logkw [21]: 1.941
